{"source": "patent US9351983B2", "about": "“Use of glycerophosphoinositols for the treatment of septic shock” (CONSIGLIO NAZIONALE DELLE RICERCHE, priority 2012, dated 2016)", "key": {"TxB-2": {"test_system": "TxB-2", "experiment": "ELISA of TxB-2 in medium of LPS-stimulated monocytes", "assay_type": "cell-based, human", "settings": "300 μM", "method": "FIG. 5—The inhibitory effects of GroPIns are also evident at the protein expression level. Purified monocytes (4×10^3 cells/sample) were pre-incubated for 20 min at 37° C. in the absence and presence of 300 μM GroPIns, and then for a further 5 h and 24 h without or with 0.1 μg/ml LPS from E. coli. At the end of this incubation, the levels of TNFα, IL-1β and TxB-2 in the medium were assessed by ELISA. In monocytes alone, the protein concentrations were under the assay detection limits at both the times. The data are representative of three independent experiments performed with cells from different donors. Exposure of monocytes to LPS induced a time-dependent increase in the […] levels of all of the cytokines analysed.\nCellular levels of TNFα, IL-1β and TxB-2 were quantified by enzyme-linked immunosorbent assay (ELISA). Conditioned medium from monocytes was sedimented by centrifugation at 300×g at room temperature for 10 min to eliminate cellular debris. Then, the supernatant was recovered and the concentrations of TNFα, IL-1β and TxB-2 were assessed by ELISA, as specified by the manufacturers (Amersham Pharmacia Biotech (NJ, USA)."}, "[1]": {"test_system": "phospholipase A2IVα (PLA2IVα) gene expression", "experiment": "In vitro model of human inflammation: real-time PCR of PLA2IVα", "assay_type": "cell-based", "settings": "300 μM; 4 h, 14 h, 24 h, 48 h; effect mainly at 4 h and 14 h; one donor, preliminary", "method": "(§1) FIG. 15—Glycerophosphoinositol modulates the kinetic transcriptional profile of genes involved in the regulation of inflammatory response. Human monocytes were purified from one donor and treated according to the in vitro model of human inflammation, previously described, in absence (blue line) or in presence (red line) of 300 μM glycerophosphoinositol. In detail glycerophosphoinositol was added to cells in culture 20 minutes before LPS, IL-10 and TGF-β, that is, again after each wash. Samples were collected at time 4 h, 14 h, 24 h, 48 h; freshly isolated monocytes have been considered as control at time 0 h. Total RNA was extracted from cells by RNeasy kit (Qiagen) and reverse-transcribed to cDNA (QuantiTect Reverse Transcription kit, Qiagen). […] Each sample was measured in triplicate and data were analyzed with Pfaffl methods for comparing relative expression data. The measurement of mRNA expression was expressed as fold-increase over control (time 0 h). […]\n(§2) Total RNA was extracted with RNeasy kit (Qiagen) according to the manufacturer's instructions. Both integrity and quality of total RNA were checked by agarose gel electrophoresis and the concentration of each RNA sample was assessed spectrophotometrically. Total RNAs were reverse-transcribed to cDNA (QuantiTect Reverse Transcription kit, Qiagen) with oligo-dT and random primers, according to manufacturer's protocol. […]"}, "Interleukin-6 (IL-6)": {"test_system": "Interleukin-6 (IL-6)", "experiment": "In vitro model of human inflammation: ELISA of IL-6 in supernatants", "assay_type": "cell-based", "settings": "300 μM; full inflammation (4 h and 14 h); one donor", "method": "(§3) FIG. 16—Glycerophosphoinositol inhibits the release of cytokines. Human monocytes were purified from one donor and treated according to the in vitro model of human inflammation, previously described, in absence (blue line) or in presence (red line) of 300 μM glycerophosphoinositol. In detail, glycerophosphoinositol was added to cultured cells 20 minutes before LPS, IL-10 and TGF-β, that is, again after each wash. The growth medium was collected at time 4 h, 14 h, 24 h, 48 h; growth medium from freshly isolated monocytes was considered as control at time 0 h. The levels of cytokines Interleukin 1β (IL-1β), Tumor necrosis factor α (TNFα) and Interleukin-6 (IL-6) in the supernatants were measured by enzyme-linked immunosorbent assay (ELISA kit, R&D System) according to manufacturer's protocol. An increased release of these cytokines was observed during the full inflammation (time 4 h and 14 h) as expected. […]\n(§4) Extracellular levels of IL-1β, TNFα and IL-6 were measured by enzyme-linked immunosorbent assay (ELISA) from R&D System. […] Then the recovered supernatants were loaded onto plates according to manufacturer's protocol and the concentration of the protein was assessed spectrophotometrically."}, "[2]": {"test_system": "Interleukin-1 receptor α (IL-1Rα) gene expression", "experiment": "In vitro model of human inflammation: real-time PCR of IL-1Rα", "assay_type": "cell-based", "settings": "300 μM; 4 h, 14 h, 24 h, 48 h; one donor, preliminary", "method": "as §1, §2"}, "[3]": {"test_system": "cyclooxygenase 2 (COX-2) gene expression", "experiment": "In vitro model of human inflammation: real-time PCR of COX-2", "assay_type": "cell-based", "settings": "300 μM; 4 h, 14 h, 24 h, 48 h; effect mainly at 4 h and 14 h; one donor, preliminary", "method": "as §1, §2"}, "[4]": {"test_system": "Tumor necrosis factor α (TNFα)", "experiment": "In vitro model of human inflammation: ELISA of TNFα in supernatants", "assay_type": "cell-based", "settings": "300 μM; full inflammation (4 h and 14 h); one donor", "method": "as §3, §4"}, "[5]": {"test_system": "inhibitor of kB, α (IκB-α) gene expression", "experiment": "In vitro model of human inflammation: real-time PCR of IκB-α", "assay_type": "cell-based", "settings": "300 μM; 4 h, 14 h, 24 h, 48 h; one donor, preliminary", "method": "as §1, §2"}, "[6]": {"test_system": "interleukin 1β (IL-1β) gene expression", "experiment": "In vitro model of human inflammation: real-time PCR of IL-1β", "assay_type": "cell-based", "settings": "300 μM; 4 h, 14 h, 24 h, 48 h; effect mainly at 4 h and 14 h; one donor, preliminary", "method": "as §1, §2"}}, "data": [{"molecule": "O=P(O)(OCC(O)CO)OC1C(O)C(O)C(O)C(O)C1O", "note": "(stereo not drawn) [GroPIns, glycerophosphoinositol]", "values": [{"measurement": "level of TxB-2 in the medium", "setting": "TxB-2; 0.1 μg/ml LPS for 5 h", "value": "very small effects"}, {"measurement": "level of TxB-2 in the medium", "setting": "TxB-2; 0.1 μg/ml LPS for 24 h", "value": "significantly reduced"}, {"measurement": "PLA2IVα mRNA expression", "setting": "[1]", "value": "hampered the expression"}, {"measurement": "amount of IL-6 in the supernatants", "setting": "Interleukin-6 (IL-6)", "value": "significantly reduced the amount of these cytokines in the supernatants"}, {"measurement": "IL-1Rα mRNA expression", "setting": "[2]", "value": "favoured the expression"}, {"measurement": "COX-2 mRNA expression", "setting": "[3]", "value": "hampered the expression"}, {"measurement": "amount of TNFα in the supernatants", "setting": "[4]", "value": "significantly reduced the amount of these cytokines in the supernatants"}, {"measurement": "IκB-α mRNA expression", "setting": "[5]", "value": "affected the expression of IκB-α"}, {"measurement": "IL-1β mRNA expression", "setting": "[6]", "value": "hampered the expression"}]}]}
